Test results as given in patent publication EP3666770A1, “NOVEL HETEROCYCLIC COMPOUNDS AS CDK8/19 INHIBITORS” (Joint Stock Company "Biocad", priority 2017, dated 2019).
Several values for one entry are separate records, joined by “and”; a condition that tells them apart may be missing. Equal entries are not always repeated. Where two headings read alike, the source gives them in different places.

Key:
[1] = Chemical stability in simulated gastric fluid (SGF); format: physicochemical; conditions: SGF without enzymes, pH=1,4; 10 µm; 2 hours at 37°C; substance amount in % after thermostatting
Summary of the method: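 Compounds at […] (diluted from DMSO stock) were incubated for 2 h at 37 °C in enzyme-free simulated gastric fluid, pH=1,4. HPLC peak areas before and after incubation gave the % of compound remaining.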

[2] = Chemical stability in human blood plasma; format: in vitro ADME; conditions: pooled human blood plasma; 10 µM; 4 hours at 37°C; substance amount in % after thermostatting
Summary of the method: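 Pooled plasma from ten healthy human donors; compound diluted from 10 mM DMSO stock to 10 µm final and incubated 4 h at 37°C. After acetonitrile protein precipitation, HPLC peak areas before and after incubation were compared; value is % compound remaining.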

[3] = Enzyme stability in human liver microsomes; format: in vitro ADME; conditions: pH 7.4; 0,5 mg/mL pooled human liver microsomes; 10 µM compound; 37°C; pH=7,4
Summary of the method: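 Pooled human liver microsomes (0,5 mg/mL) incubated at 37 °C with 10 µM compound, 2 mM β-NAD and 4 mM MgCl2 in 0,1 M sodium phosphate, pH 7,4. Samples quenched with acetonitrile and analysed by HPLC. Elimination rate constant taken from the slope of log peak area versus time, giving t1/2 and CLint.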

[4] = Permeability through Caco-2 cell monolayer; format: in vitro ADME; conditions: human, Caco-2; for Papp A→B at 2 h, 10 µM: A->B transfer, pH 6.5 -> pH 7.4, 2 hours at 37 °C; for efflux ratio at 2 h, 10 µM: efflux = Papp B-A / Papp A-B
Description: Estimation of permeability through Caco-2 cell monolayer enables assessment of the ability of the substances to penetrate through biological membranes by means of both active and passive transport.
Intestinal epithelial cells Caco-2 were grown on filter inserts (pore size 0.4 µm, BD Falcon with High Density) for 21 days; monolayer integrity was then checked using Lucifer Yellow (Sigma-Aldrich, USA) according to the standard protocol. In A->B transfer ("intestinal lumen" - "blood stream" transfer), solutions of the test substances in buffer, pH 6.5 (HBSS, 10 mM HEPES, 15 mM glucose) at a concentration of 10 µM were added to the upper chamber; whereas the lower chamber was filled with buffer, pH 7.4 (HBSS, 10 mM HEPES, 15 mM Glucose, 1% BSA). In B->A transfer ("blood stream" - "intestinal lumen" transfer), the upper chamber was filled with buffer, pH 6.5, whereas the solutions of the test substances in buffer, pH 7.4, at a concentration of 10 µM were added to the lower chamber. A highly permeable substance propranolol was used as a control.
After 2 hours incubation at 37 ° C under an atmosphere containing 5% CO2, the amounts of the test substances in the upper and lower chambers were measured by HPLC using an Agilent1200 HPLC system (Agilent, USA), proteins were preliminarily precipitated with acetonitrile. Chromatographic analysis was performed in a gradient elution regime with a flow rate of 1 mL/min. The peak areas corresponding to the compounds were detected on chromatograms.
The value was calculated using the formula: efflux = Papp B−A /Papp A−B , [formula] where • Papp A-E - the value of permeability direct analysis A→ B; • Papp B-A - the value of the permeability of the reverse analysis B→ A.

MV4-11 = assay: Cell-based antiproliferative test (AlamarBlue), MV4-11; conditions: Homo sapiens, MV4-11, 120 h, 120 h incubation; average values of several tests; read-out: MV-4-11 IC50, mkM
[5] = General cytotoxicity test on HepG2 cells; format: cell-based; conditions: human, 72 h incubation, 200 to 0.78 µM, average values of several tests, read-out: Hep-G2 CC50, mkM
Description: Cell viability was assessed using the above method. Table 6. […] The results are presented as average values of activity obtained in several tests.

KG-1 = assay: Cell-based antiproliferative test (AlamarBlue), KG-1; conditions: Homo sapiens, KG-1; 120 h incubation; average values of several tests; read-out: KG-1 IC50, mkM
Description: (§1) Antiproliferative activity of CDK8 inhibitors according to the present invention was measured in a cell-based test on continuous cell cultures MV4-11 (biphenotypic myelomonocytic leukemia, ATCC® CRL-9591™), KG-1 (acute myeloid leukemia, ATCC® CCL-246™), HL-60 (acute promyelocytic leukemia, ATCC® CCL-240™) using a vital stain AlamarBlue (ThermoFisher, #DAL1100). The cells were grown in RPMI-1640 (PanEco, #C330p) medium with addition of 10% FBS (Gibco, #16140-071); washed and resuspended in culture medium with 10% FBS (Gibco, #16140-071) in 96-well culture plates (Corning, #3599) with ≈ 10 ×10^3 cells in […] of medium per well. The compounds in question were dissolved in DMSO and diluted with a medium with 10% FBS (Gibco, #16140-071) to a final concentration ranging form 0 to 100 µM. […] of diluted compounds were then added to each well (final DMSO concentration was less than 1%) and incubated under 5% CO2 atmosphere at 37°C for 120 h. After incubating, 15 µL of AlamarBlue (ThermoFisher, #DAL1100) reagent was added per well, contents of plates were mixed in an orbital shaker (Biosan, Latvia) and further incubated for 3-5 h at 37°C under 5% CO2 atmosphere. Number of living cells was estimated using a microplate spectrophotometer (Tecan Infinite M200Pro, Switzerland) measuring fluorescent signal at the excitation wavelength (λEx) of 540 nm and emission wavelength (λEm) of 590 nm.
(§2) IC50 was calculated using Magellan 7.2 software (Tecan, Switzerland) approximating experimental points by four-parameter logistic model with the optimization by Levenberg-Marquardt (table 7, table 7).

HL-60 = assay: Cell-based antiproliferative test (AlamarBlue), HL-60; conditions: 120 h incubation, average values of several tests, read-out: HL-60 IC50, mkM
Description: as §1, §2

| Structure (SMILES) | Stability in SGF, % [1] | Stability in blood plasma, % [2] [%] | microsomal CLint at 10 µM [3] [µL/min/mg] | Papp A→B at 2 h, 10 µM [4] [×10⁻⁶ cm/s] | efflux ratio at 2 h, 10 µM [4] | IC50 (MV4-11) [µM] | CC50 at 72 h ([5]; HepG2 cells) [µM] | IC50 (KG-1) [µM] | IC50 (HL-60; Homo sapiens, HL-60, 120 h) [µM] | CC50 at 72 h [5] [µM] | IC50 (HL-60) [µM] |
| --- | --- | --- | --- | --- | --- | --- | --- | --- | --- | --- | --- |
| COc1cc(-c2cnc3[nH]cc(C(=O)c4cccnc4)c3c2)ccc1N1CCOCC1 [CDK8-4-27, (5-(3-Methoxy-4-morpholinophenyl)-1H-pyrrolo[2,3-b]pyridin-3-yl) (pyridin-3-yl) methanone] | 100% | 100 | 7.2 | 84.6 | 0.25 | 0.05 | > 100 | 5.21 | > 100 | – | – |
| COCCNC(=O)c1ccc2nccc(-c3ccc(-c4cnn(C)c4)cc3)c2c1 [CDK8-6-14, N-(2-Methoxyethyl)-4-(4-(1-methyl-1H-pyrazol-4-yl)phenyl)quinoline-6-carboxamide] | 100% | 100 | 11.8 | 64.1 | 0.44 | 11.7 | > 50 | 9.6 | 66.5 | – | – |
| COCCNC(=O)c1cnc2cncc(-c3ccc(-c4cnn(C)c4)cc3)c2c1 [CDK8-3-18, N-(2-Methoxyethyl)-5-(4-(1-methyl-1H-pyrazol-4-yl)phenyl)-1,7-naphthyridine-3-carboxamide] | 100% | 100 | 10.4 | 46.9 | 0.9 | 0.19 | > 200 | 0.08 | 35 | – | – |
| Cn1cc(-c2ccc(-c3ccnc4ccc(N5CCCC5=O)cc34)cc2)cn1 [CDK8-6-13, 1-(4-(4-(1-Methyl-1H-pyrazol-4-yl)phenyl)quinolin-6-yl) pyrrolidin-2-one] | 99.7% | 98.9 | 22.6 | – | – | 19.7 | > 200 | 12.3 | > 60 | – | – |
| NC(=O)c1ccc(-n2cnc3ccc(N4CC(C(=O)Nc5ccccc5)C4)cc32)cc1 [CDK8-1-6, 1-(1-(4-Carbamoylphenyl)-1H-benzo[d]imidazol-6-yl)-N-phenylazetidine-3-carboxamide] | 98.9% | 100 | 23.4 | – | – | 1.64 | > 100 | > 10 | 8.18 | – | – |
| O=C(c1ccc2ncn(-c3ccc(-c4cn[nH]c4)cc3)c2c1)N1CCCCC1 [CDK8-1-3, (1-(4-(1H-Pyrazol-4-yl)phenyl)-1H-benzo[d]imidazol-6-yl)(piperidin-1-yl) methanone] | 100% | 97.7 | 24.8 | 64.1 | 0.44 | 2.08 | 59.1 | 27.6 | 81.4 | – | – |
| O=C(C1CN(c2ccc3ncn(-c4ccc(-c5cn[nH]c5)cc4)c3c2F)C1)N1CCOCC1 [CDK8-1-14, (1-(1-(4-(1H-Pyrazol-4-yl)phenyl)-7-fluoro-1H-benzo[d]imidazol-6-yl)azetidin-3-yl)(morpholino)methanone] | 92.5% and 100% | 100 | 12.4 | 39.9 | 0.79 | – | > 100 | 23.2 | 33.9 | > 50 | 60.7 |
| COc1cccc(C(=O)c2c[nH]c3ncc(-c4ccc(N(C)C)cc4)cc23)c1 [CDK8-4-34, (5-(4-(Dimethylamino)phenyl)-1H-pyrrolo[2,3-b]pyridin-3-yl) (3-methoxyphenyl) methanone] | 99.5% | 100 | 24.2 | – | – | 0.14 | 2.6 | 0.2 | 0.081 | – | – |
